Laboratory results taken from patent US20050100891A1, “Gene expression profile for KSHV infection and methods for treating same” (priority 2000, published 2005).
“Also recorded” adds a separate entry of the source.

Tests used:
ORF 65 (lytic gene) = assay: RT-PCR of late (lytic) gene ORF 65 in PMA-induced KSHV-infected DMVEC; format: cell-based; details: for late gene (ORF 65) expression: compound 1 hour before PMA, 48 hours, concentration not given
Protocol: (§1) KSHV genes ORF 64 and K12 (kaposin) were used as reverse transcriptase PCR (RT-PCR) templates as described previously^(43). ORF 65 sequences were amplified with primers 5-[…] (SEQ ID NO: 5) and 5′-[…] (SEQ ID NO: 6). Cellular genes (HPRT, GAPDH, or -actin) were amplified from each sample as a control for cDNA synthesis. PCR products were visualized following electrophoresis on agarose-ethidium bromide gels.
(§2) Cells were treated with inhibitory compounds or peptides for one hour and lytic replication was induced by PMA treatment for 48 hours. Ganciclovir was used as control compound for inhibition of KSHV-replication and late gene expression^(10). After 48 hours, cells were harvested and expression of the latent gene K12 as well as the late gene ORF 65 was analyzed by RT-PCR. For control, expression of cellular genes α-actin or HPRT was monitored. […] However, both Ht31 and Haloperidol inhibited late gene expression, but not latent gene expression. Since both inhibitors potentially interfere with PKC signaling, we examined whether Ht31 or Haloperidol would inhibit the PMA-mediated induction of immediate early genes. […] In addition, the peptide Ht-31 inhibits the association between A kinase anchoring proteins (AKAPs) and PKA (21, 64). […] Therefore we conclude that the signal transduction pathways regulated by the type I sigma receptor and AKAPs are required for lytic progression of KSHV.
There is no specific inhibitor of Gravin identified, however the Ht-31 peptide derived from the PKA R-II binding domain of the human thyroid AKAP inhibits the AKAP/PKA interactions in vivo and in vitro ^(21, 64). A stearated version of this peptide is membrane permeable and can block the AKAP/PKA interaction in tissue culture. A requirement for PKA signaling can be inferred from the up-regulation of Gravin, and to further investigate the requirement for the AKAP/PKA interaction for KSHV late gene expression, infected and uninfected cells were treated with stearated Ht-31 at two concentrations (FIG. 7B). […] A stearated control peptide that is unable to interact with PKA, Ht-31P, had no effect on late gene expression (FIG. 7B, lanes 4-5). […] It is not possible to conclude whether the inhibitory effect of Ht-3 1 occurs through Gravin or any other AKAP, since Ht-31 inhibits a wide range of AKAP/PKA interactions.
(§3) The type I Sigma receptor is antagonized by the antipsychotic drug Haloperidol^(66). To investigate the requirement of Sigma receptor function for late gene expression, cells were treated with 5 μM Haloperidol for 1 hour prior to PMA addition. […] The inhibition of late gene expression was more complete with Haloperidol than with Ganciclovir (FIG. 7D, lanes 5-6). In contrast, the purine […] phosphorylase inhibitor 8-aminoguanosine (8-AMG) had no effect on viral gene expression (FIG. 7D, lane 4).

K12 (latent gene) = assay: RT-PCR of latent gene K12 in PMA-induced KSHV-infected DMVEC; format: cell-based
Protocol: as §1, §2, §3

Epstein-Barr Virus (EBV) = details: cited from earlier work
immediate early gene K3 = assay: PMA-mediated induction of immediate early gene K3; format: cell-based, KSHV
human Jurkat T cell line = assay: Proliferation of Jurkat T cell line in response to exogenous IL-2; format: cell-based
SCLC cell lines = details: via inhibition of c-Kit activity; cited from earlier work
KSHV-infected DMVEC [1] = assay: Transformation assay (focus formation, disorganized growth) in post-confluent culture; format: cell-based, human
Protocol: (§4) To promote a transformed phenotype, KSHV-infected DMVEC were cultured post-confluency in 35 mm Primaria culture dishes. […] Cells were examined daily for evidence of phenotypic change using a phase-contrast microscope and results recorded photographically.
(§5) To directly test whether KSHV-induction of c-Kit is necessary for virus-induced transformation, the consequence of inhibiting c-Kit signaling in KSHV-transformed DMVEC was evaluated.
In this approach, a dominant negative c-Kit protein lacking the cytoplasmic ATP-binding and phosphotransferase domains necessary for c-Kit signaling (Ad/c-KitDN) was expressed in KSHV-infected cells using the adenovirus delivery system outlined above.

Uninfected DMVEC = system: Uninfected DMVEC
Protocol: as §4, §5

KSHV-infected DMVEC [2] = assay: XTT-based proliferation assay, response to exogenous SCF; format: cell-based, human
Protocol: (§6) Proliferation of mock and KSHV-infected DMVEC, and the SCLC line HTB-172, was quantitated using an XTT-based assay. Cells were added to Primaria 96 well trays (Becton-Dickinson) at 1×104 or 5×10^4 cells/well. […] XTT (Roche, Molecular Biochemicals, Indianapolis, Ind.) was added 48 hours later according to the manufacturers instructions. Absorbance was read after 4 to 6 hours on a microplate reader. The HTB-172 line was obtained from the American Type Culture Collection (ATCC, Rockville, Md.).
Mock- and KSHV-infected DMVEC were cultured in growth factor depleted medium in the absence and presence of recombinant SCF and proliferation was measured using an XTT-based dye reduction assay^(112).

mock-infected DMVEC = assay: as above; format: cell-based, human
Protocol: as §6
To examine whether KSHV-induced up-regulation of c-Kit had functional consequences, we tested whether the mitogenic response of DMVEC to exogenous SCF was enhanced following KSHV infection. Mock- and KSHV-infected DMVEC were cultured in growth factor depleted medium in the absence and presence of recombinant SCF and proliferation was measured using an XTT-based dye reduction assay^(112). […] In mock-infected cultures, the increase over basal proliferation in the […] of recombinant SCF was never more than 40%, while proliferation of KSHV-infected DMVEC was increased by as much as 85%. During KS disease, an enhanced capacity of KSHV-infected endothelial cells to respond to SCF produced by adjacent endothelial cells, or by macrophages and mast cells infiltrating the KS lesion, would promote more rapid growth of virus infected cells.

[3] = 5 μM Haloperidol for 1 hour prior to PMA addition

Nc1nc2c(nc(N)n2[C@@H]2O[C@H](CO)[C@@H](O)[C@H]2O)c(=O)[nH]1 [8-aminoguanosine]
viral gene expression (K12, ORF 65) (ORF 65 (lytic gene); 10 μM 8-aminoguanosine): no effect

Nc1nc(O)c2ncn(COC(CO)CO)c2n1 [Ganciclovir]
late gene (ORF 65) expression (ORF 65 (lytic gene)): inhibited
latent gene (K12) expression (K12 (latent gene); compound 1 hour before PMA, 48 hours, concentration not given): did not interfere

O=C(CCCN1CCC(O)(c2ccc(Cl)cc2)CC1)c1ccc(F)cc1 [Haloperidol]
replication of Epstein-Barr Virus in tissue culture (Epstein-Barr Virus (EBV)): inhibit
induction of the immediate early gene K3 (immediate early gene K3): neither compound prevented induction
ORF 65 expression (ORF 65 (lytic gene); [3]): significantly reduced
completeness of inhibition of late gene expression compared with Ganciclovir (ORF 65 (lytic gene); 5 μM Haloperidol vs 25 μM Ganciclovir): more complete
late gene (ORF 65) expression (ORF 65 (lytic gene)): inhibited
expression of the latent K12 gene (K12 (latent gene); [3]): did not affect

Cc1ccc(NC(=O)c2ccc(CN3CCN(C)CC3)cc2)cc1Nc1nccc(-c2cccnc2)n1 [STI 571]
effect on capacity to proliferate in response to exogenous IL-2 (human Jurkat T cell line): no effect
growth of SCLC cell lines in vitro (SCLC cell lines): inhibit
non-specific cytotoxicity (trypan blue exclusion) (DMVEC): not due to non-specific cytotoxicity
focus formation of KSHV-transformed DMVEC (KSHV-infected DMVEC [1]; STI 571 0.01-10 μM, 5 days, organized monolayer re-established): inhibited
drug concentration at which the effect on the transformed phenotype was complete (KSHV-infected DMVEC [1]; dose-dependent): 1 µM
effect on cell morphology or viability (Uninfected DMVEC): no effect
proliferative response of KSHV-infected DMVEC to exogenous SCF (KSHV-infected DMVEC [2]; 1 μM dose, SCF 50 ng/ml, XTT assay): completely inhibited

Ht-31: peptide derived from the PKA R-II binding domain of human thyroid AKAP; inhibits AKAP/PKA interactions (WKNVLQGGESTKERFENSNIGTA)
induction of the immediate early gene K3 (immediate early gene K3): neither compound prevented induction
ORF 65 expression (ORF 65 (lytic gene); 5 μM Ht-31, PMA induction): efficiently repressed
ORF 65 expression (ORF 65 (lytic gene); 25 μM, PMA induction): inhibited; also recorded: efficiently repressed
late gene (ORF 65) expression (ORF 65 (lytic gene)): inhibited
level of K12 RNA (K12 (latent gene); 25 μM): without affecting

SCF: recombinant stem cell factor, ligand of c-Kit
SCF concentration of maximal dose-dependent proliferation (mock-infected DMVEC; mock-infected DMVEC): 50 to 100 ng/mL
increase over basal proliferation in the absence of recombinant SCF (mock-infected DMVEC; mock-infected cultures, exogenous SCF 20-100 ng/ml): ≤ 40%
SCF concentration of maximal dose-dependent proliferation (KSHV-infected DMVEC [2]; KSHV-infected DMVEC): 50 to 100 ng/mL
increase over basal proliferation in the absence of recombinant SCF (KSHV-infected DMVEC [2]; KSHV-infected DMVEC, exogenous SCF 20-100 ng/ml): ≤ 85%
